Experimental data reported in patent publication US8354381B2, “Peptide compositions for oral care systems” (E I du Pont de Nemours and Company, priority 2009, dated 2013).
Where no end group is shown, it is not given here. The star is where a group is joined. Biotin = O=C1N[C@H]2[C@H](CS[C@H]2CCCCC(=O)*)N1

Columns and labels:
[1] = tested on: pellicle coated enamel substrates; conditions: 20 μM biotinylated peptide, streptavidin-HRP, normalized to DenP03, three replicates
Protocol: A total of 20 synthetic peptides were manufactured using sequences obtained from Table 6. Peptides were obtained from SynBioSci Corp. (Livermore, Calif.) and included an additional sequence (SSRP; SEQ ID NO: 118) at the N-terminus and biotin labeled lysine at the C-terminus.
Enamel substrates were cut into approximately 7 mm squares and mounted on wax mounting for incubation in the mouth for 30 min to form a pellicle coated surface. The pellicle coated enamel substrates were removed from the wax backing and placed in well plates with the pellicle surface exposed as in Example 5. Each pellicle coated substrate was incubated for 1 h at room temperature (˜22° C.) with 1 mL of blocking buffer, consisting of 1 mg/mL BSA in PBST (Pierce BUPH™ #28372 with 0.1% TWEEN® 20). The blocking buffer was removed by aspirating the liquid out of each well. The tube was rinsed 2 times with wash buffer consisting of PBST. The wells were filled with 500 μL of 20 μM peptide solution which was prepared by diluting in blocking buffer. The samples were incubated for 30 min with slow shaking at 37° C. The non-binding peptide was removed by washing 6 times with PBST. Then, 500 μL of horseradish peroxidase/streptavidin conjugate (Pierce #22127), diluted 1:2000 in PBST, was added and incubated for 1 h at room temperature (˜22° C.). The conjugate solution was removed and was washed 4 times with PBST.
Each enamel substrate was removed from the well and washed again in a 15-mL test tube with 10 mL of PBST. Each enamel substrate was then mounted in a clean well plate with only the enamel surface exposed. A 1:1 solution of TMB substrate and H2O2 (200 μL) was added to each well and the color was allowed to develop for between 10 to 20 min, typically for 15 min, at room temperature (˜22° C.). Then, 100 μL of solution from each well was transferred to a 96 well reading plate containing stop solution (100 μL of 2 M H2SO4) in each well. The A450 was measured using a microplate spectrophotometer (Molecular Devices, Sunnyvale, Calif.). […] Each sequence was tested with three replicate enamel coated pellicle substrates.

[2] = tested on: pellicle-coated HAP disks; experiment: Phage ELISA on pellicle-coated HAP disks; assay type: binding, human; conditions: over 10^10 pfu phage, A450
From the text: A total of 20 selected phage candidates (Example 1) were used in a phage ELISA experiment. Purified phage lysates were used for binding to pellicle-coated HAP disks using an anti-M13 phage antibody conjugated to horseradish-peroxidase, followed by the addition of chromogenic agent TMB (3,3′,5,5′-tetramethylbenzidine), obtained from Pierce Biotechnology (Item #34021; Rockford, Ill.). The plates were read at A450 nm.
For each phage candidate to be tested, the pellicle-coated HAP disks (3 mm diameter) was incubated for 1 h at room temperature with 200 μL of blocking buffer, consisting of 2% non-fat dry milk (Schleicher & Schuell, Inc.) in TBS. […] The tube was rinsed 6 times with wash buffer consisting of TBST-0.05%. The wells were filled with 200 μL of TBST-0.5% containing 1 mg/mL BSA (bovine serum albumin) and then 10 μL (over 10^10 pfu) of purified phage stock was added. The samples were incubated at room temperature for 60 min with slow shaking. The non-binding phage were removed by washing 6 times with TBST-0.5%. […] The conjugate solution was removed and was washed 6 times with TBST-0.5%.

[3] = tested on: pellicle coated bovine enamel; experiment: Phage ELISA of brushed 8 hr pellicle candidates, screened with 30 min in vivo pellicle (Example 8); assay type: binding, human; conditions: 10^11 pfu phage, 30 min in vivo pellicle on bovine enamel, normalized to DenP3
Protocol: A total of 18 selected phage candidates were used in a phage ELISA Experiment. Purified phage lysates were used for binding to pellicle coated bovine enamel using an anti-M13 phage antibody conjugated to horseradish-peroxidase, followed by the addition of chromogenic agent TMB. The plates were read at A450 nm.
The wells were rinsed 2 times with wash buffer consisting of PBST. The wells were filled with 1 mL of 10^11 pfu purified phage stock which was prepared by diluting in blocking buffer. […] The non-binding phage was removed by washing 5 times with PBST. Then, 500 μL of horseradish peroxidase/anti-M13 antibody conjugate (Amersham USA, Piscataway, N.J.), diluted 1:500 in the blocking buffer, was added and incubated for 45 min at room temperature. The conjugate solution was removed and was washed 5 times with PBST.

| Substance | O.D.450 (normalized) [1] | O.D.450 [2] | O.D.450 (normalized) [3] |
| --- | --- | --- | --- |
| SSRPVNPNWVETQALHQPPGNTK(Biotin) [DenP20-A] | 0.590 | – | – |
| SSRPTTGSSSQADTSASMSIVPAHK(Biotin) [DenP17-A] | 0.143 | – | – |
| QHCITERLHPPCTK (Synthetic oral-surface binding peptide) [Pell 17] | – | 0.614 | – |
| AHPESLGIKYALDGNSDPHA (Synthetic oral-surface binding peptide) [Pell 1] | – | 0.739 | – |
| SSRPYLLPKDQTTAPQVTPIVQHKK(Biotin) [DenP5-A] | 0.462 | – | – |
| AIEYQHSATTPWTMRTRLPP (Synthetic oral-surface binding peptide) [DenP101] | – | – | 0.467 |
| DGYKLQTSLDWQMWNP (Synthetic oral-surface binding peptide) [DenP111] | – | – | 1.051 |
| FPSKWYNHHRHITGHV (Synthetic oral-surface binding peptide) [DenP112] | – | – | 0.413 |
| NPTDSTHMMHARNHE (Synthetic oral-surface binding peptide) [Pell 16] | – | 0.578 | – |
| DECMHGSDVEFCTS (Synthetic oral-surface binding peptide) [Pell 4] | – | 0.664 | – |
| NGPEVRQIPANFEKL (Synthetic oral-surface binding peptide) [Pell 11] | – | 0.607 | – |
| NQQMKLVPQHWHRAQP (Synthetic oral-surface binding peptide) [DenP119] | – | – | 1.051 |
| GINKGQRPPWESWHEN (Synthetic oral-surface binding peptide) [DenP114] | – | – | 0.703 |
| DLCSSPSTWGSCIR (Synthetic oral-surface binding peptide) [Pell 6] | – | 0.735 | – |
| MPGHQESIKVQNWNRV (Synthetic oral-surface binding peptide) [DenP117] | – | – | 0.433 |
| SSRPELDHDSRHYMNGLQRKVTK(Biotin) [DenP15-A] | 0.460 | – | – |
| SSRPGPQHVLMQDTHQGYAFDNK(Biotin) [DenP16-A] | 0.309 | – | – |
| SSRPHDPNHLTHQARTIYRNANHTK(Biotin) [DenP23-A] | 0.850 | – | – |
| SSRPIYPNESMSTSNVRGPYHPK(Biotin) [DenP22-A] | 0.354 | – | – |

| Substance | O.D.450 (normalized) [1] | O.D.450 [2] | O.D.450 (normalized) [3] |
| --- | --- | --- | --- |
| HDHLSWWGQFDRQNLL (Synthetic oral-surface binding peptide) [DenP116] | – | – | 1.055 |
| THGNKHQSWTYPSEINHKNY (Synthetic oral-surface binding peptide) [DenP108] | – | – | 1.149 |
| SSRPDLGTFPNRTLKMAAHK(Biotin) [DenP11-A] | 0.454 | – | – |
| SSRPQVPDYLSPTHQKKAFLEIPTK(Biotin) [DenP29-A] | 0.468 | – | – |
| NLHSPWPSHAAHHWST (Synthetic oral-surface binding peptide) [DenP118] | – | – | 0.641 |
| SSRPFDGIGLGTATRHQNRK(Biotin) [DenP12-A] | 0.475 | – | – |
| SMWHDITKRYRNPSEMVSAY (Synthetic oral-surface binding peptide) [DenP107] | – | – | 0.726 |
| DPNESNYENATTVSQPTRHL (Synthetic oral-surface binding peptide) [Pell 7] | – | 0.831 | – |
| GNTDTTPPNAVMEPTVQHKW (Synthetic oral-surface binding peptide) [Pell 9] | – | 0.755 | – |
| SSRPAPPTYQTASYPHNLPSKRKMK(Biotin) [DenP28-A] | 0.811 | – | – |
| WHEPHQFSGENTDYSSSMGT (Synthetic oral-surface binding peptide) [DenP109] | – | – | 0.716 |
| NNTSADNPPETDSKHHLSMS (Synthetic oral-surface binding peptide) [Pell 12] | – | 0.521 | – |
| TPCAPASFNPHCSR (Synthetic oral-surface binding peptide) [Pell 18] | – | 0.416 | – |
| EFYPFAEVPPEKSGIGRQVF (Synthetic oral-surface binding peptide) [DenP102] | – | – | 0.520 |
| SSRPQAAQVHMMQHSRPTTK(Biotin) [DenP13-A] | 0.699 | – | – |
| NPTATPHMKDPMHSNAHSSA (Synthetic oral-surface binding peptide) [Pell 14] | – | 0.7 | – |
| SFSWHRGDWELGHQSKTMGM (Synthetic oral-surface binding peptide) [DenP106] | – | – | 1.524 |
| SSRPTYQGVPSWPAVIDDAIRRK(Biotin) [DenP19-A] | 0.712 | – | – |
| NNTWPEGAGHTMPSTNIRQA (Synthetic oral-surface binding peptide) [Pell 13] | – | 0.598 | – |

| Substance | O.D.450 (normalized) [1] | O.D.450 [2] | O.D.450 (normalized) [3] |
| --- | --- | --- | --- |
| WCTDFCTRSTPTSTSRSTTS (Synthetic oral-surface binding peptide) [Pell 20] | – | 0.715 | – |
| SSRPTMTNHVYNSYTEKHSSTHRSK(Biotin) [DenP2-A] | 0.273 | – | – |
| GYQPHYVDHTIGWQPMIRPN (Synthetic oral-surface binding peptide) [DenP104] | – | – | 0.790 |
| SSRPNGNNHTDIPNRSSYTGGSFAK(Biotin) [DenP1-A] | 0.154 | – | – |
| SSRPSEARARTFNDHTTPMPIIK(Biotin) [DenP14-A] | 0.269 | – | – |
| QFNQTSHSFMHGTSGYVPGK (Synthetic oral-surface binding peptide) [DenP105] | – | – | 0.470 |
| DLCSMQMMNTGCHY (Synthetic oral-surface binding peptide) [Pell 5] | – | 0.83 | – |
| SSRPEFPYYNDNPPNPERHTLRK(Biotin) [DenP7-A] | 0.356 | – | – |
| DECMEPLNAAHCWR (Synthetic oral-surface binding peptide) [Pell 3] | – | 0.49 | – |
| EPTHPTMRAQMHQSLRSSSP (Synthetic oral-surface binding peptide) [Pell 8] | – | 0.712 | – |
| NPTDHIPANSTNSRVSKGNT (Synthetic oral-surface binding peptide) [Pell 15] | – | 0.567 | – |
| GVHQYSRPTVPSYLWTSGQH (Synthetic oral-surface binding peptide) [DenP103] | – | – | 0.879 |
| GGMGALESYRQWNHLA (Synthetic oral-surface binding peptide) [DenP113] | – | – | 1.348 |
| SSRPVEPATKNMREARSSTQMRRIK(Biotin) [DenP4-A] | 0.803 | – | – |
| TPCATYPHFSGCRA (Synthetic oral-surface binding peptide) [Pell 19] | – | 0.731 | – |
| GYGQYVSQQTWAHSNK (Synthetic oral-surface binding peptide) [DenP115] | – | – | 0.501 |
| ASVSNYPPIHHLATSNTTVN (Synthetic oral-surface binding peptide) [Pell 2] | – | 0.75 | – |
| NGPDMVQSVGKHKNS (Synthetic oral-surface binding peptide) [Pell 10] | – | 0.729 | – |
